# Key:
# LIPA KO SUM-159 cells = assay: Live cell confocal imaging of ER tubule width, SUM-159 LIPA KO; assay type: cell-based, Human; details: 1 μM
# Experimental: Live cell confocal and Airyscan imaging: To visualize ER structure, stable SUM-159 cell lines expressing mCherry-RAMP4 were established. pLenti-X1-hygro-mCherry-RAMP4 was purchased from Addgene (Addgene #118391; //n2t.net/addgene:118391; RRID:Addgene_118391) (via Jacob Corn).^35 The live cell images were acquired by Confocal Zeiss LSM880 Airyscan. ER tubule width was calculated by drawing 1px-wide line scans perpendicular to the long axis of individual ER tubules. In MATLAB, the peak intensity along each line scan was determined and the distance between the half maximum intensity on either side of the peak was measured. The code for this analysis is available at: //github.com/andmoo91/HalfMaxScript.
# ER Alpha-LBD (GST) = biological target: T1, ER Alpha-LBD (GST) (Homo sapiens, UniProt P03372); assay: LanthaScreen TR-FRET ER alpha Coactivator Assay, antagonist mode; assay type: binding; details: 2 h incubation
# T1 construct: 3.5 nM ER Alpha-LBD (GST); purchased life technologies A15885
# T1 sequence (P03372 311-547 limits assumed): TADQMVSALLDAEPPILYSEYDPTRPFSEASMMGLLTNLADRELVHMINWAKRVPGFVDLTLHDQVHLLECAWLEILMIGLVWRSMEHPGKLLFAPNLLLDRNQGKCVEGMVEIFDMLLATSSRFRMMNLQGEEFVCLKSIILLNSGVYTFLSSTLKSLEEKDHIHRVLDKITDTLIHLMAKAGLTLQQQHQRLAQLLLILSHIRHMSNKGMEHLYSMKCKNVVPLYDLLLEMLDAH
# [1] = Evaluation of normal organs of treated mice (H&E, IHC, flow cytometry, ELISpot); assay type: in vivo
# Experimental: Immunohistochemistry: Immunohistochemical studies were performed as described previously.^7 For the immunohistochemical studies, tissue sections were blocked in background sniper (Biocare Medical, RS966L) followed by overnight incubation with primary antibodies anti-Ki-67 antibody (1:1000, GeneTex cat #GTX16667 RRID:AB_422351) (link), anti-CHOP antibody (1:2000, Sigma, Cat #HPA068416), anti-PERK (phospho T982) antibody (1:150, Abcam Cat #ab192591, RRID:AB_2728666) link)), anti-phospho-eIF2α (Ser51) (1:50, Cell signaling, cs3398) and subsequent secondary antibody incubation for 60 min at room temperature. Immunoreactivity was visualized by using the DAB substrate and counterstained with hematoxylin (Vector Lab, Inc.). Percent of Ki67 positive proliferating cells was calculated in five randomly selected high-power fields (×40).
# ELISpot. For ELISpot analysis of total IgM^+ and IgG^+ ASCs, Multi-Screen® filter plates (Millipore) were activated with 35% ethanol, washed with PBS, and coated with anti-IgM (SouthernBiotech, Cat. #1020-01) or anti-IgG (SouthernBiotech, Cat. #1030-01) in PBS. Single bone marrow cell suspensions were prepared, as above, and cultured at 250,000 cells/ml in RPMI 1640 medium (Invitrogen) supplemented with FBS (10% v/v, Invitrogen), penicillin-streptomycin/amphotericin B (1% v/v) and 50 μM β-mercaptoethanol (RPMI-FBS) at 37° C. for 16 h. After supernatants were removed, plates were incubated with biotinylated goat anti-mouse IgM (SouthernBiotech, Cat. #1020-08) or goat anti-mouse IgG1 (SouthernBiotech, Cat. #1070-08) Ab for 2 h and, after washing, incubated with HRP-conjugated streptavidin. Plates were developed using the Vectastain AEC peroxidase substrate kit (Vector Laboratories). The stained area in each well was quantified using the CTL ImmunoSpot software (Cellular Technology) and depicted as the number of spots for quantification
# Flow cytometry: Single cell suspensions were flushed from tibia and fibula using sterile DPBS using a 10 ml syringe and 30 G needle. Red blood cells were removed by incubation with ACK lysis buffer (Lonzo) for 2 m. Bone marrow cells (2×10^6) were first stained in Hank's Buffered Salt Solution plus 0.1% BSA (HBSS-BSA) for 20 m with fixable viability dye (FVD, eFluor™ 506, eBioscience™, Cat. #50-246-097) and fluorophore-labeled mAbs to surface markers, including CD3 (APC-Cy7, Clone 17A2, BioLegend, Cat. #100221), IgD (FITC, Clone 11-26c.2a, BioLegend, Cat. #405704), CD138 (PE-Cy7, Clone 281-2, BioLegend, Cat. #142514), SCA-1 (PerCP, Clone D7, BioLegend, Cat. #108121), B220 (BV421, Clone RA3-6B2, BioLegend, Cat. #103240), in the presence of mAb Clone 2.4G2, which blocks FcγII and FcγIII receptors. After washing, cells were then fixed and permeablized by incubation for 1 h in 250 μl BD Cytofix/Cytoperm™ buffer (BD Fixation/Permeablization Kit, Cat. #554714) at 4° C. After washing twice with the BD Perm/Wash™ buffer, cells were counted again and 10^6 cells were resuspended in 100 μl of BD Cytofix/Cytoperm™ buffer for intracellular staining with anti-Igκ mAb (PE, e-Bioscience™, Clone 1871, Cat. #MKAPPA04) for 30 m. After washing with BD Perm/Wash™ buffer, cells were analyzed by LSRII (BD). FACS data were analyzed by the FlowJo® software (BD).
# Animal Studies: All animal experiments were performed using UTHSA and UTSW IACUC approved protocols. For cell based xenograft tumor assays, TNBC cells (2×10^5-2×10^6) were mixed with an equal volume of matrigel and implanted in the mammary fat pads of 6-week-old female athymic nude mice as described^33. BALB/c mice were used for D2A1 syngeneic model. Once tumors reached measurable size, mice were divided into control (vehicle) and ERX-41 (10 mg/kg/oral) treatment groups. Mice bearing TNBC PDX tumors were purchased from Jackson laboratory (TM00089; TM00096; TM00098). TNBC PDX line UTPDX0001 establishment was earlier described^38. WHIM-20 ER+PDX model was purchased from Horizon Labs. OCa-PDX-38 was received from UTHSA ObGyn tissue procurement core. […]
smiles,measurement,setting,value
CC(C)COc1cc(C(=O)Nc2ccc(C(=O)N[C@H]3CC[C@H](C)CC3)cc2OCC(C)C)ccc1NC(=O)c1ccc([N+](=O)[O-])c(OCCO)c1 [ERX-41],ER tubule diameter in LIPA KO cells,LIPA KO SUM-159 cells,no significant changes in ER tubule diameter
same,interaction with ERα LBD,ER Alpha-LBD (GST),does not interact with ERG LBD
same,"bone marrow plasma cell numbers, Ig κ expression, IgM or IgG ASCs","[1]; flow cytometry and ELISpot, 1 week oral 10 mg/kg/day",did not show any significant effects
same,"gross histology of organs, nude mice with MDA-MB-231 xenografts","[1]; heart, lung, spleen, liver, kidney, ovary, pancreas, 30 days oral 10 mg/kg/day",no significant changes in the gross histology of multiple organs
same,"histology of organs, syngeneic mice with D2A1 xenografts",[1]; multiple organs including spleen,no significant histologic changes or immune infiltrates
same,ER stress in normal liver or kidney tissues,"[1]; oral administration, data not shown",no significant induction of ER stress
same,"uterus: proliferation index (Ki67), endometrial cell height, ERα expression","[1]; oral, 10 mg/kg/day",did not affect the proliferation index
same,immunogenicity,[1]; syngeneic mice,not immunogenic
